Experimental data reported in the NIST ThermoML archive (doi:10.1016/j.jct.2007.03.002).
Several values for one entry are separate records, joined by “and”; a condition that tells them apart may be missing. Equal values may be shown once. ± gives the expanded uncertainty stated by the source.

How the values were obtained:
[1] = molar heat capacity at constant pressure; settings: 298.15 K; 101.33 kPa; Crystal; Drop calorimetry
[2] = Molar enthalpy of transition or fusion; settings: Crystal; DSC
[3] = Crystal; for vapor or sublimation pressure: Calculated from knudsen effusion weight loss; for Normal melting temperature: DTA
[4] = molar enthalpy of vaporization or sublimation; settings: 298.15 K; Crystal; Static calorimetry

Compound	molar heat capacity at constant pressure [1] [J/K/mol]	Molar enthalpy of transition or fusion [2] [kcal/mol]	vapor or sublimation pressure ([3]; 313 K)	vapor or sublimation pressure ([3]; 316 K) [kPa]	vapor or sublimation pressure ([3]; 319 K)	vapor or sublimation pressure ([3]; 322 K)	Normal melting temperature [3] [°C]	molar enthalpy [4] [kcal/mol]	mass density ([3]; 298.15 K, 101.33 kPa, mass and size of pellet) [kg/m3]
OCc1ccccc1-c1ccccc1 [2-biphenylmethanol]	268.98 ± 22	4.71 ± 0.12	0.0001171 ± 3.5e-05 kPa and 0.0001179 ± 3.6e-05 kPa	0.0001736 ± 5.2e-05	0.0002555 ± 7.7e-05 kPa and 0.0002537 ± 7.7e-05 kPa	0.0003732 ± 0.00011 kPa and 0.0003682 ± 0.00011 kPa	49.2 ± 0.7	25.6 ± 0.311	
OCc1ccc(-c2ccccc2)cc1 [4-biphenylmethanol]	256.08 ± 66	6.45 ± 0.143					100.6 ± 0.7	25.6 ± 0.86	1390 ± 360
